Data as given in US20090004185A1, “AMINO-SUBSTITUTED QUINAZOLINE DERIVATIVES AS INHIBITORS OF BETA-CATENIN/TCF-4 PATHWAY AND CANCER TREATMENT AGENTS” (WYETH, priority 2007, published 2009).

Columns and labels:
[1] = test system: SV40-Luc; test: SV40-Luc control luciferase reporter assay, SV 5A8 cell line (SV40-Luc and SV40-R-Luc), control for non-specific inhibitors; type: cell-based, human; settings: Homo sapiens, SV5A8, 24 h, SV 5A8 cells derived from SW480; 24 hours of incubation with compound; ratio Firefly/Renilla luciferase
Procedure, shortened: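 Dual-luciferase readout in SW480 lines with chromosomally integrated reporters, namely Tcf-4-driven firefly in Tcf 33.13 and Tcf 22C11, and SV40-driven firefly in SV 5A8, all with SV40-Renilla. Compound incubation is 24 h; IC50 comes from the normalised F/R ratio.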

[2] = test system: β-catenin/Tcf-4; test: cells; type: cell-based; settings: Homo sapiens, 24 hours of incubation with compound, ratio Firefly/Renilla luciferase
Procedure, shortened: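 SW480-derived lines with integrated reporters (Tcf-4-driven firefly luciferase; SV40 firefly as specificity control; SV40 Renilla for cell number/toxicity), treated 24 hours with titrated compounds, final 0.316% DMSO. Dual-luciferase read-out; firefly/Renilla ratio as % of control, duplicate plates, IC50 (nM) from curve fit.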

[3] = SW480, 24 h, Tcf 33.13 cells derived from SW480
[4] = Tcf22C11, 24 h, Tcf 22C11 cells derived from SW480

In the case of `Cc1ccc2nc(N3CCN[C@H](C)C3)nc(NCc3ccc(NC(=O)C4CCN(Cc5ccccc5)CC4)cc3)c2c1` [Example 85, 1-benzyl-N-{4-[({6-methyl-2-[(3R)-3-methylpiperazin-1-yl]quinazolin-4-yl}amino)methyl]phenyl}piperidine-4-carboxamide], the IC50 [1] is reported as > 2220 nM, the IC50 [2, 3] is reported as 530 nM and the IC50 [2, 4] is reported as 771 nM.

`CNc1nc(NCc2ccc(NC(=O)c3cccnc3Cl)cc2)c2ccccc2n1` [Example 7, 2-chloro-N-[4-({[2-(methylamino)quinazolin-4-yl]amino}methyl)phenyl]nicotinamide] was tested, and the IC50 [1] was > 23900 nM, the IC50 [2, 3] was > 2980 nM and the IC50 [2, 4] was > 2980 nM.

For `O=C(Nc1ccc(CNc2nc(N3CCCC3)nc3ccccc23)cc1)c1ccc(F)cc1` [Example 119, 4-fluoro-N-(4-{[(2-pyrrolidin-1-ylquinazolin-4-yl)amino]methyl}phenyl)benzamide], the IC50 [1] was > 2830 nM, the IC50 [2, 3] was 1270 nM and the IC50 [2, 4] was 1740 nM.

In the case of `Cc1ccc2c(NCc3ccc(NC(=O)c4ccc(F)cc4)cc3)nc(N3CCCCC3CCO)nc2c1` (stereo not drawn) [Example 224, 4-fluoro-N-{4-[({2-[2-(2-hydroxyethyl)piperidin-1-yl]-7-methylquinazolin-4-yl}amino)methyl]phenyl}benzamide], the IC50 [1] is reported as > 9740 nM, the IC50 [2, 3] is reported as 781 nM and the IC50 [2, 4] is reported as 1000 nM.

`CNc1nc(NCc2ccc(NC(=O)c3ccc(Cl)nc3)cc2)c2cc(OC)ccc2n1` [Example 31, 6-chloro-N-[4-({[6-methoxy-2-(methylamino)quinazolin-4-yl]amino}methyl)phenyl]nicotinamide] was tested, and the IC50 [1] was > 22300 nM, the IC50 [2, 3] was 4120 nM and the IC50 [2, 4] was 5950 nM.

In the case of `CNc1nc(NCc2ccc(NC(=O)c3ccc(Cl)cc3)cc2)c2cc(OC)ccc2n1` [Example 33, 4-chloro-N-[4-({[6-methoxy-2-(methylamino)quinazolin-4-yl]amino}methyl)phenyl]benzamide], the IC50 [1] is reported as > 2790 nM, the IC50 [2, 3] is reported as 1720 nM and the IC50 [2, 4] is reported as 1280 nM.

For `Cc1ccc2nc(N3CCCCC3)nc(NCc3ccc(NC(=O)c4ccc(F)cc4)cc3)c2c1` [Example 42, 4-fluoro-N-(4-{[(6-methyl-2-piperidin-1-ylquinazolin-4-yl)amino]methyl}phenyl)benzamide], the IC50 [1] was > 10600 nM, the IC50 [2, 3] was 2940 nM and the IC50 [2, 4] was 9250 nM.

With `Cc1ccc2nc(N(C)C)nc(NCc3ccc(NC(=O)Nc4ccc(Cl)cc4)cc3)c2c1` [Example 178, N-(4-chlorophenyl)-N′-[4-({[2-(dimethylamino)-6-methylquinazolin-4-yl]amino}methyl)phenyl]urea] the IC50 [1] was > 2710 nM, the IC50 [2, 3] was 245 nM and the IC50 [2, 4] was 266 nM.

For `Cc1ccc2c(NCc3ccc(NC(=O)c4ccc(Cl)cc4)cc3)nc(NCCc3ccccn3)nc2c1` [Example 197, 4-chloro-N-{4-[({7-methyl-2-[(2-pyridin-2-ylethyl)amino]quinazolin-4-yl}amino)methyl]phenyl}benzamide], the IC50 [1] was > 2390 nM, the IC50 [2, 3] was 382 nM and the IC50 [2, 4] was 376 nM.

With `O=C(Nc1ccc(CNc2nc(N3CCN(c4ncccn4)CC3)nc3ccc(C(F)(F)F)cc23)cc1)c1ccc(Cl)cc1` [Example 164, 4-chloro-N-[4-({[2-(4-pyrimidin-2-ylpiperazin-1-yl)-6-(trifluoromethyl)quinazolin-4-yl]amino}methyl)phenyl]benzamide] the IC50 [1] was > 8080 nM, the IC50 [2, 3] was 4310 nM and the IC50 [2, 4] was 5190 nM.

`Cc1ccc2c(NCc3ccc(NC(=O)c4ccc(F)cc4)cc3)nc(N(C)Cc3ccccc3)nc2c1` [Example 203, N-{4-[({2-[benzyl(methyl)amino]-7-methylquinazolin-4-yl}amino)methyl]phenyl}-4-fluorobenzamide] was tested, and the IC50 [1] was > 9890 nM, the IC50 [2, 3] was 579 nM and the IC50 [2, 4] was 590 nM.

`Cc1ccc2nc(N(C)C)nc(NCc3ccc(NC(=O)Nc4ccc(F)cc4)cc3)c2c1` [Example 181, N-[4-({[2-(dimethylamino)-6-methylquinazolin-4-yl]amino}methyl)phenyl]-N′-(4-fluorophenyl)urea] was tested, and the IC50 [1] was > 2810 nM, the IC50 [2, 3] was 549 nM and the IC50 [2, 4] was 719 nM.

With `Cc1ccc2nc(N3CCN(c4ccccn4)CC3)nc(NCc3ccc(NC(=O)C4CCN(Cc5ccccc5)CC4)cc3)c2c1` [Example 79, 1-benzyl-N-[4-({[6-methyl-2-(4-pyridin-2-ylpiperazin-1-yl)quinazolin-4-yl]amino}methyl)phenyl]piperidine-4-carboxamide] the IC50 [1] was > 16000 nM, the IC50 [2, 3] was 1680 nM and the IC50 [2, 4] was 2350 nM.

`Cc1ccc2nc(N3CCCC3)nc(NCc3ccc(NC(=O)c4ccc(F)cc4)cc3)c2c1` [Example 44, N-(4-((2-(1-azacyclopentyl)-6-methylquinazolin-4-ylamino)methyl)phenyl)-4-fluorobenzamide] was tested, and the IC50 [1] was > 22000 nM, the IC50 [2, 3] was > 22000 nM and the IC50 [2, 4] was > 22000 nM.

With `Cc1ccc2c(NCc3ccc(NC(=O)C4CCN(Cc5ccccc5)CC4)cc3)nc(N3CCN[C@H](C)C3)nc2c1` [Example 143, 1-benzyl-N-{4-[({7-methyl-2-[(3R)-3-methylpiperazin-1-yl]quinazolin-4-yl}amino)methyl]phenyl}piperidine-4-carboxamide] the IC50 [1] was > 8870 nM, the IC50 [2, 3] was 1470 nM and the IC50 [2, 4] was 1930 nM.

In the case of `Cc1ccc2c(NCc3ccc(NC(=O)c4ccc(F)cc4)cc3)nc(NCCN3CCCC3)nc2c1` [Example 237, 4-fluoro-N-{4-[({7-methyl-2-[(2-pyrrolidin-1-ylethyl)amino]quinazolin-4-yl}amino)methyl]phenyl}benzamide], the IC50 [1] is reported as > 5010 nM, the IC50 [2, 3] is reported as 829 nM and the IC50 [2, 4] is reported as 888 nM.

With `CN(C)c1nc(NCc2ccc(NC(=O)c3ccc(Cl)nc3)cc2)c2ccccc2n1` [Example 128, 6-chloro-N-[4-({[2-(dimethylamino)quinazolin-4-yl]amino}methyl)phenyl]nicotinamide] the IC50 [1] was > 23100 nM, the IC50 [2, 3] was 708 nM and the IC50 [2, 4] was 1130 nM.

`Cc1ccc2c(NCc3ccc(NC(=O)Nc4ccc(F)cc4)cc3)nc(N(C)C)nc2c1` [Example 180, N-[4-({[2-(dimethylamino)-7-methylquinazolin-4-yl]amino}methyl)phenyl]-N′-(4-fluorophenyl)urea] was tested, and the IC50 [1] was > 5610 nM, the IC50 [2, 3] was 2020 nM and the IC50 [2, 4] was 1460 nM.

For `Cc1ccc2nc(N3CCC3)nc(NCc3ccc(NC(=O)C4CCN(Cc5ccccc5)CC4)cc3)c2c1` [Example 84, N-(4-{[(2-azetidin-1-yl-6-methylquinazolin-4-yl)amino]methyl}phenyl)-1-benzylpiperidine-4-carboxamide], the IC50 [1] was > 9310 nM, the IC50 [2, 3] was 423 nM and the IC50 [2, 4] was 434 nM.

For `CNc1nc(NCc2ccc(NC(=O)c3ccc(C(F)(F)F)cc3)cc2)c2cc(C)ccc2n1` [Example 27, N-[4-({[6-methyl-2-(methylamino)quinazolin-4-yl]amino}methyl)phenyl]-4-(trifluoromethyl)benzamide], the IC50 [1] was > 5370 nM, the IC50 [2, 3] was 402 nM and the IC50 [2, 4] was 526 nM.

For `Cc1ccc2c(NCc3ccc(NC(=O)C4CCN(Cc5ccc(F)cc5Cl)CC4)cc3)nc(N(C)C)nc2c1` [Example 258, 1-(2-chloro-4-fluorobenzyl)-N-[4-({[2-(dimethylamino)-7-methylquinazolin-4-yl]amino}methyl)phenyl]piperidine-4-carboxamide], the IC50 [1] was > 7890 nM, the IC50 [2, 3] was 215 nM and the IC50 [2, 4] was 521 nM.

For `Cc1ccc2c(NCc3ccc(NC(=O)C4CCN(Cc5ccccc5)CC4)cc3)nc(N(C)C)nc2c1` [Example 129, 1-benzyl-N-[4-({[2-(dimethylamino)-7-methylquinazolin-4-yl]amino}methyl)phenyl]piperidine-4-carboxamide], the IC50 [1] was > 9170 nM, the IC50 [2, 3] was 754 nM and the IC50 [2, 4] was 738 nM.

With `Cc1ccc2c(NCc3ccc(NC(=O)C4CCN(CC(C)C)CC4)cc3)nc(N(C)C)nc2c1` [Example 244, N-[4-({[2-(dimethylamino)-7-methylquinazolin-4-yl]amino}methyl)phenyl]-1-isobutylpiperidine-4-carboxamide] the IC50 [1] was > 10500 nM, the IC50 [2, 3] was 962 nM and the IC50 [2, 4] was 650 nM.

`CN(C)c1nc(NCc2ccc(NC(=O)c3ccc(F)cc3)cc2)c2ccc(-c3cccnc3Cl)cc2n1` [Example 100, N-[4-({[7-(2-chloropyridin-3-yl)-2-(dimethylamino)quinazolin-4-yl]amino}methyl)phenyl]-4-fluorobenzamide] was tested, and the IC50 [1] was > 17700 nM, the IC50 [2, 3] was 541 nM and the IC50 [2, 4] was 548 nM.

With `C/C=C\c1ccc2c(NCc3ccc(NC(=O)C4CCN(Cc5ccccc5)CC4)cc3)nc(N(C)C)nc2c1` [Example 153, 1-benzyl-N-{4-[({2-(dimethylamino)-7-[(1Z)-prop-1-en-1-yl]quinazolin-4-yl}amino)methyl]phenyl}piperidine-4-carboxamide] the IC50 [1] was > 4110 nM, the IC50 [2, 3] was 305 nM and the IC50 [2, 4] was 462 nM.

In the case of `CNc1nc(NCc2ccc(NC(=O)c3cc(F)c(Cl)nc3Cl)cc2)c2ccccc2n1` [Example 8, 2,6-dichloro-5-fluoro-N-[4-({[2-(methylamino)quinazolin-4-yl]amino}methyl)phenyl]nicotinamide], the IC50 [1] is reported as > 5300 nM, the IC50 [2, 3] is reported as 1530 nM and the IC50 [2, 4] is reported as 1770 nM.

For `CNc1nc(NCc2ccc(NC(=O)c3ccc(Cl)cc3Cl)cc2)c2ccccc2n1` [Example 16, 2,4-dichloro-N-[4-({[2-(methylamino)quinazolin-4-yl]amino}methyl)phenyl]benzamide], the IC50 [1] was > 2760 nM, the IC50 [2, 3] was 1820 nM and the IC50 [2, 4] was > 2760 nM.

With `Cc1ccc2c(NCc3ccc(NC(=O)Nc4ccc(Cl)cc4)cc3)nc(N(C)C)nc2c1` [Example 177, N-(4-chlorophenyl)-N′-[4-({[2-(dimethylamino)-7-methylquinazolin-4-yl]amino}methyl)phenyl]urea] the IC50 [1] was > 10800 nM, the IC50 [2, 3] was > 5420 nM and the IC50 [2, 4] was > 5420 nM.
